Source: patent publication US12648946B2, “Combination of antibody-pyrrolobenzodiazepine derivative conjugate and PARP inhibitor” (DAIICHI SANKYO COMPANY, LIMITED, priority 2019, dated 2026)
Like-named read-outs stand apart in the source and are kept apart here.

What was measured:
[1] = system: human ovarian cancer cell line SK-OV-3; experiment: Cell growth inhibition test (4); format: cell-based; conditions: for IC50: SK-OV-3, 144 h
Description: Cells of the human ovarian cancer cell line SK-OV-3 purchased from ATCC (American Type Culture Collection) were used for evaluation. Cells were prepared with McCoy's 5A (Modified) Medium containing 10% fetal bovine serum (GE Healthcare) (Thermo Fisher Scientific; hereinafter, referred to as McCoy's SA medium) to reach 1.25×10^4 cells/mL, and 80 μL portions of them were added into a 96-well cell culture microplate. After addition of the cells, the cells were cultured at 37° C. and 5% CO2 overnight.
On the next day, 10 μL portions of pyrrolobenzodiazepine derivative A diluted with McCoy's 5A medium to 100 pM, 50 pM, 25 pM, 12.5 pM, 6.25 pM, 3.13 pM, 1.56 pM, or 0.78 pM were added to the microplate. To each well without pyrrolobenzodiazepine derivative A, 10 μL of McCoy's 5A medium was added. Further, 10 μL portions of talazoparib prepared with McCoy's 5A medium to reach 5 nM were added to the microplate. To each well without talazoparib, 10 μL of McCoy's 5A medium was added. Thereafter, the microplate was cultured at 37° C. and 5% CO2 for 6 days. After culturing, the microplate was taken out of the incubator, and left to stand at room temperature for 30 minutes. CellTiter-Glo Luminescent Cell Viability Assay (Promega Corporation) in an amount equivalent to that of the culture solution was added, and stirred using a plate mixer. The microplate was left to stand at room temperature for 10 minutes, and thereafter the amount of emission was measured by using a plate reader (PerkinElmer).
Cell survival rates in wells with derivative A were calculated by using the following formula.
[formula] • a: Mean value of amounts of emission from wells with derivative A • b: Mean value of amounts of emission from wells with medium • IC50 values were calculated by using the following formula. […]
Cell survival rates in wells with derivative A added together with 5 nM talazoparib were calculated by using the following formula. […]

[2] = system: human lung cancer cell line Calu-6; experiment: Cell growth inhibition test (1); format: cell-based; conditions: for IC50: Calu-6, 144 h
Description: The human lung cancer cell line Calu-6 obtained from ATCC (American Type Culture Collection) was used for evaluation. Cells were prepared with MEM containing 10% fetal bovine serum (GE Healthcare), MEM Non-Essential Amino Acids Solution (Thermo Fisher Scientific), and Sodium Pyruvate (Thermo Fisher Scientific) (Thermo Fisher Scientific; hereinafter, referred to as EMEM medium) to reach 1.25×10^4 cells/mL, and 80 μL portions of them were added into a 96-well cell culture microplate. After addition of the cells, the cells were cultured at 37° C. and 5% CO2 overnight.
On the next day, 10 μL portions of pyrrolobenzodiazepine derivative A, B, or C diluted with EMEM medium to 100 pM, 50 pM, 25 pM, 12.5 pM, 6.25 pM, 3.13 pM, 1.56 pM, or 0.78 pM were added to the microplate. To each well without any pyrrolobenzodiazepine derivative, 10 μL of EMEM medium was added. Further, 10 μL portions of olaparib prepared with EMEM medium to reach 2 μM were added to the microplate. To each well without olaparib, 10 μL of EMEM medium was added. Thereafter, the microplate was cultured at 37° C. and 5% CO2 for 6 days. After culturing, the microplate was taken out of the incubator, and left to stand at room temperature for 30 minutes. CellTiter-Glo Luminescent Cell Viability Assay (Promega Corporation) in an amount equivalent to that of the culture solution was added, and stirred using a plate mixer. The microplate was left to stand at room temperature for 10 minutes, and thereafter the amount of emission was measured by using a plate reader (PerkinElmer).
Cell survival rates in wells with derivative A, B, or C were calculated by using the following formula.
[formula] • a: Mean value of amounts of emission from wells with derivative A, B, or C • b: Mean value of amounts of emission from wells with medium • IC50 values were calculated by using the following formula.
(§1) [formula] • a: Concentration of derivative A, B, or C, a • b: Concentration of derivative A, B, or C, b • c: Cell survival rate when derivative A, B, or C of concentration a was added • d: Cell survival rate when derivative A, B, or C of concentration b was added • a and b satisfy a>b at points sandwiching a cell survival rate of 50%.
Cell survival rates in wells with derivative A, B, or C added together with 2 μM olaparib were calculated by using the following formula.
[formula] a: Mean value of amounts of emission from wells with derivative A, B, or C added together with 2 μM olaparib • b: Mean value of amounts of emission from wells with 2 μM olaparib • IC50 values were calculated by using the following formula.
as §1, with “and 2 μM olaparib were” for “was”

COc1ccc(C2=CN3C(=O)c4cc(OC)c(OCCCCCOc5cc6c(cc5OC)C(=O)N5CC7(CC7)C[C@H]5C=N6)cc4NC[C@@H]3C2)cc1 [derivative A, (11a′S)-7′-Methoxy-8′-[(5-{[(11aS)-7-methoxy-2-(4-methoxyphenyl)-5-oxo-5,10,11,11a-tetrahydro-1H-pyrrolo[2,1-c][1,4]benzodiazepin-8-yl]oxy}pentyl)oxy]-1′,11a′-dihydro-5′H-spiro[cyclopropane-1,2′-pyrrolo[2,1-c][1,4]benzodiazepine]-5′-one]
IC50 ([1]; read-out: IC50, growth-suppressing effect, added singly, SK-OV-3, 6 days): 8.1 pM
IC50 ([1]; read-out: IC50, growth-suppressing effect, added together with 5 nM talazoparib, SK-OV-3, 6 days): 4.6 pM
IC50 ([2]; read-out: IC50, growth-suppressing effect, added singly, Calu-6, 6 days): 6.8 pM
IC50 ([2]; read-out: IC50, growth-suppressing effect, added together with 2 μM olaparib, Calu-6, 6 days): 4.3 pM

Cn1ncnc1[C@H]1c2n[nH]c(=O)c3cc(F)cc(c23)N[C@@H]1c1ccc(F)cc1 [talazoparib]
inhibition at 0.005 µM ([1]; 144 h, 5 nM talazoparib alone, SK-OV-3, 6 days): < 10%

O=C(c1cc(Cc2n[nH]c(=O)c3ccccc23)ccc1F)N1CCN(C(=O)C2CC2)CC1 [olaparib, reference compound]
inhibition at 2 µM ([2]; 144 h, 2 μM olaparib alone, Calu-6, 6 days): < 10%
